Laboratory results as given in patent US8247211B2, “Glycopeptide antibiotics” (American Cyanamid Company, priority 2001, dated 2012).
Converted amounts (≈) assume the structure as drawn.

How the values were obtained:
Assay in all cases: In vitro antibacterial evaluation: minimum inhibitory concentration (MIC), broth dilution method
Assay type in all cases: cell-based
Escherichia coli = tested on: Escherichia coli
Outline: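 NCCLS M7-A2 broth dilution with Mueller-Hinton II, testing 64-0.06 μg/mL antibiotic against 5×10^5 CFU/mL inocula. Test strains include recent methicillin-, penicillin- or vancomycin-resistant clinical isolates. MIC is the lowest concentration preventing growth.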

Enterococcus sp. = tested on: Enterococcus sp.
Outline: (§1)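 First, organisms are seeded at 5×10^5 CFU/mL into Muller-Hinton II […]. Next, antibiotic is applied across 64-0.06 μg/mL by broth dilution (NCCLS M7-A2). Finally, the lowest inhibitory concentration is recorded as MIC.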

Streptococcus sp. = tested on: Streptococcus sp.
Outline: as §1

Staphylococcus sp. = details: broth dilution, 18 hours at 35° C.
Outline: as §1

[1] = broth dilution, inoculum 5×10^5 CFU/mL, 18 hours at 35° C.

CC(c1ccccc1)C1NC(=O)CNC(=O)C(CO)NC(=O)C(C(O)C2CNC(=N)N2C2OC(CO)C(O)C(O)C2O)NC(=O)C(C(O)C2CNC(=N)N2)NC(=O)C(Cc2ccc(OC3OC(CO)C(OC4OC5COC(c6ccc(-c7cccs7)cc6)OC5C(O)C4O)C(O)C3O)cc2)NC1=O (stereo not drawn) [Example 163, Cyclo[glycyl-β-methylphenylalanyl-O-[4-O-[4,6-O-[4-(2-thienyl)benzylidene]hexopyranosyl]-hexopyranosyl]tyrosyl-3-(2-iminoimidazolidin-4-yl)seryl-3-(3-hexopyranosyl-2-iminoimidazolidin-4-yl)serylseryl]]
MIC Escherichia coli (ATCC 25922) (Escherichia coli; strain ATCC 25922): >64 µg/mL | MIC Escherichia coli (GC 4559) (Escherichia coli; strain GC 4559): 64 µg/mL (≈ 43.7 µM) | MIC Escherichi coli (GC 4560) (Escherichia coli; strain GC 4560): 8 µg/mL (≈ 5.46 µM) | MIC Enterococcus avium (GC 4558) (Enterococcus sp.; [1]): 4 µg/mL (≈ 2.73 µM) | MIC Enterococcus faecalis (ATCC 29212) (Enterococcus sp.; [1]): 8 µg/mL (≈ 5.46 µM) | MIC Enterococcus faecalis (GC 2242) (Enterococcus sp.; [1]): 4 µg/mL (≈ 2.73 µM) | MIC Enterococcus faecalis (GC 2691) (Enterococcus sp.; [1]): 4 µg/mL (≈ 2.73 µM) | MIC Enterococcus faecalis (GC 3059) (Enterococcus sp.; [1]): 8 µg/mL (≈ 5.46 µM) | MIC Enterococcus faecalis (GC 4552) (Enterococcus sp.; [1]): 8 µg/mL (≈ 5.46 µM) | MIC Enterococcus faecalis (GC 4553) (Enterococcus sp.; [1]): 4 µg/mL (≈ 2.73 µM) | MIC Enterococcus faecalis (GC 4554) (Enterococcus sp.; [1]): 8 µg/mL (≈ 5.46 µM) | MIC Enterococcus faecalis (GC 6189) (Enterococcus sp.; [1]): 4 µg/mL (≈ 2.73 µM) | MIC Enterococcus faecium (GC 2243) (Enterococcus sp.; [1]): 8 µg/mL (≈ 5.46 µM) | MIC Enterococcus faecium (GC 4556) (Enterococcus sp.; [1]): 4 µg/mL (≈ 2.73 µM) | MIC Enterococcus faecium (GC 4557) (Enterococcus sp.; [1]): 8 µg/mL (≈ 5.46 µM) | MIC Enterococcus faecalis (ATCC 29212) (Enterococcus sp.; strain ATCC 29212): 8 µg/mL (≈ 5.46 µM) | MIC Enterococcus faecalis (GC 2242) (Enterococcus sp.; strain GC 2242): 4 µg/mL (≈ 2.73 µM) | MIC Enterococcus faecium (GC 2243) (Enterococcus sp.; strain GC 2243): 8 µg/mL (≈ 5.46 µM) | MIC Enterococcus faecalis (GC 2691) (Enterococcus sp.; strain GC 2691): 4 µg/mL (≈ 2.73 µM) | MIC Enterococcus faecalis (GC 3059) (Enterococcus sp.; strain GC 3059): 8 µg/mL (≈ 5.46 µM) | MIC Enterococcus faecalis (GC 4552) (Enterococcus sp.; strain GC 4552): 8 µg/mL (≈ 5.46 µM) | MIC Enterococcus faecalis (GC 4553) (Enterococcus sp.; strain GC 4553): 4 µg/mL (≈ 2.73 µM) | MIC Enterococcus faecalis (GC 4554) (Enterococcus sp.; strain GC 4554): 8 µg/mL (≈ 5.46 µM) | MIC Enterococcus faecium (GC 4556) (Enterococcus sp.; strain GC 4556): 4 µg/mL (≈ 2.73 µM) | MIC Enterococcus faecium (GC 4557) (Enterococcus sp.; strain GC 4557): 8 µg/mL (≈ 5.46 µM) | MIC Enterococcus avium (GC 4558) (Enterococcus sp.; strain GC 4558): 4 µg/mL (≈ 2.73 µM) | MIC Enterococcus faecalis (GC 6189) (Enterococcus sp.; strain GC 6189): 4 µg/mL (≈ 2.73 µM) | MIC Streptococcus agalactiae (GC 4564) (Streptococcus sp.; [1]): <0.5 µg/mL | MIC Streptococcus pneumoniae (ATCC 6301) (Streptococcus sp.; [1]): <0.5 µg/mL | MIC Streptococcus pneumoniae (GC 1894) (Streptococcus sp.; [1]): <0.5 µg/mL | MIC Streptococcus pneumoniae (GC 4565) (Streptococcus sp.; [1]): 1 µg/mL (≈ 0.682 µM) | MIC Streptococcus pyogenes (GC 4563) (Streptococcus sp.; [1]): <0.5 µg/mL | MIC Streptococcus pneumoniae (ATCC 6301) (Streptococcus sp.; strain ATCC 6301): <0.5 µg/mL | MIC Streptococcus pneumoniae (GC 1894) (Streptococcus sp.; strain GC 1894): <0.5 µg/mL | MIC Streptococcus pyogenes (GC 4563) (Streptococcus sp.; strain GC 4563): <0.5 µg/mL | MIC Streptococcus agalactiae (GC 4564) (Streptococcus sp.; strain GC 4564): <0.5 µg/mL | MIC Streptococcus pneumoniae (GC 4565) (Streptococcus sp.; strain GC 4565): 1 µg/mL (≈ 0.682 µM) | MIC Coagulase Negative Staphylococcus (GC 4547) (Staphylococcus sp.; 5×10^5 CFU/mL): 8 µg/mL (≈ 5.46 µM) | MIC Coagulase Negative Staphylococcus (GC 4548) (Staphylococcus sp.; 5×10^5 CFU/mL): 1 µg/mL (≈ 0.682 µM) | MIC Coagulase Negative Staphylococcus (GC 4549) (Staphylococcus sp.; 5×10^5 CFU/mL): 4 µg/mL (≈ 2.73 µM) | MIC Coagulase Negative Staphylococcus (GC 4551) (Staphylococcus sp.; 5×10^5 CFU/mL): 2 µg/mL (≈ 1.36 µM) | MIC Coagulase Negative Staphylococcus (GC 6257) (Staphylococcus sp.; 5×10^5 CFU/mL): 2 µg/mL (≈ 1.36 µM) | MIC Staphylococcus aureus (ATCC 29213) (Staphylococcus sp.; 5×10^5 CFU/mL): 4 µg/mL (≈ 2.73 µM) | MIC Staphylococcus aureus (GC 1131) (Staphylococcus sp.; 5×10^5 CFU/mL): 4 µg/mL (≈ 2.73 µM) | MIC Staphylococcus aureus (GC 3051) (Staphylococcus sp.; 5×10^5 CFU/mL): 8 µg/mL (≈ 5.46 µM) | MIC Staphylococcus aureus (GC 3053) (Staphylococcus sp.; 5×10^5 CFU/mL): 8 µg/mL (≈ 5.46 µM) | MIC Staphylococcus aureus (GC 4541) (Staphylococcus sp.; 5×10^5 CFU/mL): 4 µg/mL (≈ 2.73 µM) | MIC Staphylococcus aureus (GC 4542) (Staphylococcus sp.; 5×10^5 CFU/mL): 4 µg/mL (≈ 2.73 µM) | MIC Staphylococcus aureus (GC 4544) (Staphylococcus sp.; 5×10^5 CFU/mL): 4 µg/mL (≈ 2.73 µM) | MIC Staphylococcus aureus (GC 4545) (Staphylococcus sp.; 5×10^5 CFU/mL): 4 µg/mL (≈ 2.73 µM) | MIC Staphylococcus aureus-SMITH (GC 4543) (Staphylococcus sp.; 5×10^5 CFU/mL): 1 µg/mL (≈ 0.682 µM) | MIC Staphylococcus haemolyticus (GC 4546) (Staphylococcus sp.; 5×10^5 CFU/mL): 4 µg/mL (≈ 2.73 µM) | MIC Staphylococcus aureus (ATCC 29213) (Staphylococcus sp.; strain ATCC 29213): 4 µg/mL (≈ 2.73 µM) | MIC Staphylococcus aureus (GC 1131) (Staphylococcus sp.; strain GC 1131): 4 µg/mL (≈ 2.73 µM) | MIC Staphylococcus aureus (GC 3051) (Staphylococcus sp.; strain GC 3051): 8 µg/mL (≈ 5.46 µM) | MIC Staphylococcus aureus (GC 3053) (Staphylococcus sp.; strain GC 3053): 8 µg/mL (≈ 5.46 µM) | MIC Staphylococcus aureus (GC 4541) (Staphylococcus sp.; strain GC 4541): 4 µg/mL (≈ 2.73 µM) | MIC Staphylococcus aureus (GC 4542) (Staphylococcus sp.; strain GC 4542): 4 µg/mL (≈ 2.73 µM) | MIC Staphylococcus aureus-SMITH (GC 4543) (Staphylococcus sp.; strain GC 4543): 1 µg/mL (≈ 0.682 µM) | MIC Staphylococcus aureus (GC 4544) (Staphylococcus sp.; strain GC 4544): 4 µg/mL (≈ 2.73 µM) | MIC Staphylococcus aureus (GC 4545) (Staphylococcus sp.; strain GC 4545): 4 µg/mL (≈ 2.73 µM) | MIC Staphylococcus haemolyticus (GC 4546) (Staphylococcus sp.; strain GC 4546): 4 µg/mL (≈ 2.73 µM) | MIC Coagulase Negative Staphylococcus (GC 4547) (Staphylococcus sp.; strain GC 4547): 8 µg/mL (≈ 5.46 µM) | MIC Coagulase Negative Staphylococcus (GC 4548) (Staphylococcus sp.; strain GC 4548): 1 µg/mL (≈ 0.682 µM) | MIC Coagulase Negative Staphylococcus (GC 4549) (Staphylococcus sp.; strain GC 4549): 4 µg/mL (≈ 2.73 µM) | MIC Coagulase Negative Staphylococcus (GC 4551) (Staphylococcus sp.; strain GC 4551): 2 µg/mL (≈ 1.36 µM) | MIC Coagulase Negative Staphylococcus (GC 6257) (Staphylococcus sp.; strain GC 6257): 2 µg/mL (≈ 1.36 µM)
